These results are taken from US4739106A, “3-amino-3-carbamoyloxyalkylacrylic acid intermediates to dihydropyridines” (Banyu Pharmaceutical Co., Ltd., priority 1982, dated 1988).

For series [1], the system named is cerebral blood flow and peripheral blood flow. The series is described as follows: Separate pharmacological test: cerebral and peripheral blood flow, i.v. It is filed as in vivo. As to conditions: 1 to 10 μg/kg intravenously.
Series [2] has as its system isolated hearts of rabbits (coronary vessels). The series is described as follows: Coronary vasodilation, Langendorff method, isolated hearts of rabbits. As to conditions: Oryctolagus cuniculus, dosage of a sample required to increase the coronary outflow by 50%, isolated rabbit hearts, read-out: Coronary vasodilation ICD50. As for the experimental part: (a) Coronary vasodilation
According to Langendorff method (O. Langendorff; Pflugers arch. ges. phisiol., 61, 291-332 (1895)), the coronary vasodilation effects were tested using isolated hearts of rabbits. The strength of coronary vasodilation was evaluated by ICD50 (g/ml) i.e. the dosage of a sample required to increase the coronary outflow by 50%.

The nature of series [3]: Acute toxicity, i.v., DM strain male mice, up-and-down method. As to conditions: mouse, in vivo, iv.
The subject of a further series is Beagle dogs. The series is described as follows: Coronary effects on anesthetized beagle dogs (CF, FAF, BP, HR), i.v. To be noted: for CF % increase: coronary blood flow; for CF % increase / FAF % increase / HR % increase: vs saline control; for FAF % increase: femoral artery blood flow; for HR % increase: heart rate; for BP % decrease: systemic blood pressure, vs control. It is filed as in vivo, dog (beagle). The protocol:
(c) Coronary effects on dogs
Beagle dogs (13 to 16 kg, .male.) were subjected to thoracotomy under anesthesia with sodium pentobarbital, and a probe was attached to the heart left coronary anterior descending artery of each animal, whereupon the coronary blood flow (CF) was measured by an electromagnetic flowmeter. On the other hand, a probe was attached to the exposed right femoral artery, and the femoral artery blood flow (FAF) was measured by an electromagnetic flowmeter. A canule was inserted to the left femoral artery, and the systemic blood pressure (BP) was bloody measured by a transducer.
The heart rate (HR) was measured by an electrocardiogram.
The sample solution was intravenously injected to the right femoral vein.
The coronary blood flow (CF), the femoral artery blood flow (FAF) and the heart rate (HR) were represented by a % increase upon the injection of each sample as compared with the respective control value upon the injection of a saline.
The systemic blood pressure (BP) was represented by a % decrease as compared with the control.

Each structure is given as a SMILES string. In brackets after ≈: the same amount, converted by molar mass.

For `CCOC(=O)C1=C(C)NC(COC(N)=O)=C(C(=O)OCC)C1c1cccc([N+](=O)[O-])c1` (stereo not drawn) [(1), 2-Carbamoyloxymethyl-6-methyl-4-(m-nitrophenyl)-3,5-diethoxycarbonyl-1,4-dihydropyridine], in series [1], the “Increase of cerebral blood flow” value lay within 40 to 50% and the “Increase of peripheral blood flow” value is on record as 40 to 50%.

Turning to `CCOC(=O)C1=C(C)NC(COC(=O)NC)=C(C(=O)OCC)C1c1cccc([N+](=O)[O-])c1` (stereo not drawn) [(2)], the EC50 in series [2] was 0.32 µg/mL (≈ 0.715 µM). Besides, the LD50 in series [3] amounted to 71 mg/kg.

Turning to `CNC(=O)OCC1=C(C(=O)OC)C(c2cccc([N+](=O)[O-])c2)C(C(=O)OC)=C(C)N1` (stereo not drawn) [(4)], the EC50 in series [2] was 0.36 µg/mL (≈ 0.858 µM). This compound also registered a 50% lethal dose (LD50) in series [3] of 84 mg/kg.

For the compound `CCOC(=O)C1=C(C)NC(COC(N)=O)=C(C(=O)OCC)C1c1ccccc1[N+](=O)[O-]` (stereo not drawn) [(5), 2-Carbamoyloxymethyl-6-methyl-4-(o-nitrophenyl)-3,5-diethoxycarbonyl-1,4-dihydropyridine], in the series on Beagle dogs (1 μg/kg i.v.), the CF % increase is given as 13%, the FAF % increase worked out at 8%, the HR % increase was 0% and the BP % decrease was found to be 0%. Also, in the series with Beagle dogs (3 μg/kg i.v.), the CF % increase came to 38%, the FAF % increase was found to be 35%, the HR % increase is given as 0% and the BP % decrease was 2%. For the same compound, in the series with Beagle dogs (10 μg/kg i.v.), the CF % increase came to 86%, the FAF % increase is 82%, the HR % increase is -10% and the BP % decrease is 22%.

On to `CCCOCCOC(=O)C1=C(C)NC(COC(N)=O)=C(C(=O)OCCOCCC)C1c1cccc([N+](=O)[O-])c1` (stereo not drawn) [(12), 2-Carbamoyloxymethyl-6-methyl-4-(m-nitrophenyl)-3,5-bis[(β-propoxyethoxy)carbonyl]-1,4-dihydropyridine], for which, in series [1], the “Increase of cerebral blood flow” value is recorded as 40 to 50% and the “Increase of peripheral blood flow” value was in the range of 40 to 50%.

As for `CCCOCCOC(=O)C1=C(C)NC(COC(=O)NC)=C(C(=O)OCCOCCC)C1c1cccc([N+](=O)[O-])c1` (stereo not drawn) [(13), 2-N--Methylcarbamoyloxymethyl,-6-methyl-4-(m-nitrophenyl)-3,5-bis[(β-propoxyethoxy)carbonyl]-1,4-dihydropyridine], in series [1], the “Increase of cerebral blood flow” value was in the range of 40 to 50% and the “Increase of peripheral blood flow” value lay in the range of 40 to 50%.

For `COC(=O)C1=C(COC(N)=O)NC(C)=C(C(=O)OCCN(C)Cc2ccccc2)C1c1cccc([N+](=O)[O-])c1` (stereo not drawn) [(15), 2-Carbamoyloxymethyl-6-methyl-4-(m-nitrophenyl)-3-methoxycarbonyl-5-(β-N--methylbenzylaminoethoxy)carbonyl-1,4-dihydropyridine], the LD50 in series [3] stood at 200 mg/kg.

On to `COC(=O)C1=C(COC(N)=O)NC(C)=C(C(=O)OCCN2CCOCC2)C1c1cccc([N+](=O)[O-])c1` (stereo not drawn) [(18), 2-Carbamoyloxymethyl-6-methyl-4-(m-nitrophenyl)-3-methoxycarbonyl-5-(β-morpholinoethoxy)carbonyl-1,4-dihydropyridine], for which the LD50 in series [3] came out at 200 mg/kg.

For orientation: LD50 means the dose expected to kill half of the subjects tested. High values mean lower toxicity, low ones greater toxicity.
